Measurements taken from the NIST ThermoML archive (doi:10.1021/je049903o).
± gives the expanded uncertainty stated by the source.

Conditions: 298.15 K; 101.33 kPa; Liquid

**Q.** Which mass density does the source give for `COCCOCCOCCOCCOC` [2,5,8,11,14-pentaoxapentadecane] here?
**A.** 1007.12 ± 0.53 kg/m3

**Q.** Which mass density does the source give for `COCCOCCOCCOC` [2,5,8,11-tetraoxadodecane] here?
**A.** 980.625 ± 0.52 kg/m3

**Q.** Which mass density does the source give for `CCCCCCCCCC` [decane] here?
**A.** 726.357 ± 0.83 kg/m3

**Q.** With `CCCCCCC` [heptane] as the compound, how does the mass density read?
**A.** 679.542 ± 0.45 kg/m3

**Q.** For `CCCCCCCC` [octane], which mass density is on record?
**A.** 698.548 ± 0.53 kg/m3

**Q.** Which mass density does the source give for `CCCCCCCCCCCCCC` [tetradecane] here?
**A.** 759.274 ± 0.51 kg/m3
